In patent US8568745B2, “Water-soluble drug carrier and process for producing the same” (Kyushu University, National University Corporation, priority 2009, dated 2013):

Assay: Dispersibility of FITC-DEX-encapsulated S/W with additives
Type: physicochemical
Settings: additive 125 mg/mL in aqueous phase of S/O/W emulsion
Experimental: In order to reduce the particle size in S/W, the additives presented in Table 1 were added to the aqueous phase of the S/O/W emulsion during the preparation of S/W, and the dispersibility of each sample was observed.
(2) Cyclohexane (3.0 mL) was added to (1) to obtain an FITC-DEX-encapsulated S/O.
(3) A PC-ER-290-FITC-DEX complex solid was obtained by freeze drying the S/O/W emulsion prepared by agitating the solution of (2) (0.50 mL), and 5.0 mL of an aqueous solution (containing 2.5 mg/mL PC, and each additive at a concentration of 125 mg/mL) in a 12-mL vial container using a homogenizer.
(4) A 0.1 TE buffer (5.0 mL) was added to (3) to obtain an FITC-DEX-encapsulated S/W.

dispersibility / particle size of FITC-DEX-encapsulated S/W with additive | Compound
relatively small particle sizes | OC[C@H]1O[C@H](O[C@H]2O[C@H](CO)[C@@H](O)[C@H](O)[C@H]2O)[C@H](O)[C@@H](O)[C@@H]1O [trehalose]
relatively small particle sizes | OCC(O)CO [Glycerine]
relatively small particle sizes | OC[C@@H](O)[C@@H](O)[C@H](O)[C@@H](O)CO [sorbitol]
